# Reference: patent US9447157B2, “Nitration shielding peptides and methods of use thereof” (Augusta University Research Institute, Inc., priority 2013, dated 2016)
# Assays:
# PKG-1α [1] = molecular target: T1, PKG-1α (Homo sapiens, UniProt Q13976); assay: PKG-1α nitration (IP, 3-NT blot) in transfected HEK-293T cells; format: cell-based; details: HEK-293T expressing WT-PKG-1α, SIN-1 500 μM 30 min
# T1 construct: transfected with an expression plasmid containing a full length WT-PKG-1α cDNA; made in house; host or cells: HEK-293T (methods); the results paragraph b527 says PASMC
# T1 sequence (Q13976 2-671): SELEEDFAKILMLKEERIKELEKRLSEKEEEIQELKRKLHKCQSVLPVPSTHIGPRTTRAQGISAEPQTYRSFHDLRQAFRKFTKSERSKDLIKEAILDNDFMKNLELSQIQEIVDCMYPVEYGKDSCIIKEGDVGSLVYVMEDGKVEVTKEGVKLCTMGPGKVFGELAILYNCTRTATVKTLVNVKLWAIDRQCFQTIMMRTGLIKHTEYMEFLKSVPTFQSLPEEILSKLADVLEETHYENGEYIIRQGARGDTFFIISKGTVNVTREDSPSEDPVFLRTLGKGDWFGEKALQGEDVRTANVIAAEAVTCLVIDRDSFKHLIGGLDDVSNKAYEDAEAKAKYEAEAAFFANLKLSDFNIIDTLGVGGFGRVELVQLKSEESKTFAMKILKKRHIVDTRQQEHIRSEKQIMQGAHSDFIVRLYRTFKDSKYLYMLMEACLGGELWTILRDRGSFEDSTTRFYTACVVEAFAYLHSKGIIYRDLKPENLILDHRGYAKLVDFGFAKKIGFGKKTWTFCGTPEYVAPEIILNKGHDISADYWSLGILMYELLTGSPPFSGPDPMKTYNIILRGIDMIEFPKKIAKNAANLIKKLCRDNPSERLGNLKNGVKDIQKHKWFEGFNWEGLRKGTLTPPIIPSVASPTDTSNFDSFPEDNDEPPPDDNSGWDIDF
# Procedure: (§1) Cells were homogenized in 3× weight/volume of IP buffer (25 mM Hepes, pH 7.5, 150 mM NaCl, 1% NP-40, 10 mM MgCl2, 1 mM EDTA, 2% glycerol, supplemented with protease inhibitor). The homogenates were then centrifuged at 20,000 g at 4° C. for 20 min, the supernatant was collected, and the protein concentration was quantified by the Bio-Rad DC Protein Assay. To 1000 μg of total protein, 4 μg of antibody against PKG-1α was added; the volume was brought to 1 ml with IP buffer, and the mixture was nutated at 4° C. overnight. To precipitate the bound protein, 30 μl of protein G plus agarose suspension (EMD biosciences, Inc., San Diego, Calif.) was added, and the samples were nutated for 2 h at 4° C. To collect the bead-bound antibody, the samples were then centrifuged at 2000 g for 5 min at 4° C., the supernatant was removed, and the beads were washed 3× with 500 μl of IP buffer. […]
# (§2) To determine the role of tyrosine 247 and tyrosine 425 in mediating the nitration dependent inhibition of PKG-1α kinase activity, Y247F- and Y425F-PKG-1α mutants were generated and expressed in HEK-293T cells. […] Protein extracts were immunoprecipitated using an antibody raised against PKG-1α and the level of nitrated PKG-1α determined by probing the membranes with an antiserum raised against 3-NT. […]
# PKG-1α [2] = assay: as above; format: cell-based, human; details: HEK-293T expressing Y247F- or Y425F-PKG-1α, SIN-1 500 μM 30 min
# Procedure: as §1, §2
# PKG-1α [3] = molecular target: T1, PKG-1α; assay: 3-NT-Y247-PKG-1α immunoblot in transfected PASMC; format: cell-based; details: PASMC transfected with WT-PKG-1α, SIN-1 500 μM 30 min
# Procedure: The 3-NT Y247 PKG-1α specific antibody was raised against a synthetic peptide antigen ENGE(Y-NO2)[…], where Y-NO2 represent 3-nitrotyrosine. The peptide was used to immunize rabbits. Tyrosine nitration-reactive rabbit antiserum was first purified by affinity chromatography. Further purification was carried out using immunodepletion by non-nitrated peptide […] resin chromatography, after which the resulting eluate was tested for antibody specificity by immunoblotting and immune-histochemistry with fluorescent staining.
# Cells were prepared as previously described (Sud, N., et al., American Journal of Physiology 293, L1444-1453 (2007); Sharma, S., et al., American Journal of Physiology 294, L46-56 (2008)). Briefly, the cellular protein extracts were prepared by homogenizing the cells in lysis buffer (50 mM Tris-HCl, pH 7.6, 0.5% Triton X-100, and 20% glycerol) containing Halt protease inhibitor cocktail (Pierce, Rockford, Ill.). The extracts were then clarified by centrifugation (20,000 g for 20 min at 4° C.). […] Reactive bands were visualized using chemi-luminescence (Pierce Laboratories, Rockford, Ill.) on a Kodak 440CF image station. The band intensity was quantified using Kodak 1D image processing software. […]
# PASMC were transiently transfected with expression plasmids containing WT- or Y247FPKG-1α for 48 h. […] The fluorescent-stained sections were analyzed using confocal microscopy.
substance,measurement,setting,value
3-morpholinosydnonimine N-ethylcarbamide [SIN-1],Nitration of WT-PKG-1α,PKG-1α [1],significantly increased
same,Nitration levels of Y247F- or Y425F-PKG-1α,PKG-1α [2],no significant increases
same,WT-PKG-1α nitration (3-NT-Y247-PKG-1α antibody),PKG-1α [3],significantly increased
